Assay results as given in PubChem BioAssay (NCI).
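A five-concentration, 48-hour dose response in 96-well plates underlies each endpoint, interpolated linearly between surrounding concentrations. GI50 is the concentration that inhibits growth by half. Definition used: TGI = concentration required for complete inhibition of growth.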

Columns and labels:
Assay in all cases: inhibition of tumour cell growth, NCI panel, 48 h
SK-OV-3 ovarian = tested on: SK-OV-3 ovarian
OVCAR-5 ovarian = tested on: OVCAR-5 ovarian
TK-10 renal = tested on: TK-10 renal
SK-MEL-2 melanoma = tested on: SK-MEL-2 melanoma
HCT-15 colon = tested on: HCT-15 colon
EKVX NSCLC = tested on: EKVX NSCLC
SK-MEL-28 melanoma = tested on: SK-MEL-28 melanoma
NCI-H460 lung = tested on: NCI-H460 lung
OVCAR-4 ovarian = tested on: OVCAR-4 ovarian
OVCAR-3 ovarian = tested on: OVCAR-3 ovarian

| Compound | GI50 (SK-OV-3 ovarian) [µM] | TGI (SK-OV-3 ovarian) [µM] | GI50 (OVCAR-5 ovarian) [µM] | TGI (OVCAR-5 ovarian) [µM] | GI50 (TK-10 renal) [µM] | TGI (TK-10 renal) [µM] | GI50 (SK-MEL-2 melanoma) [µM] | TGI (SK-MEL-2 melanoma) [µM] | GI50 (HCT-15 colon) [µM] | TGI (HCT-15 colon) [µM] | GI50 (EKVX NSCLC) [µM] | TGI (EKVX NSCLC) [µM] | GI50 (SK-MEL-28 melanoma) [µM] | TGI (SK-MEL-28 melanoma) [µM] | GI50 (NCI-H460 lung) [µM] | TGI (NCI-H460 lung) [µM] | GI50 (OVCAR-4 ovarian) [µM] | TGI (OVCAR-4 ovarian) [µM] | GI50 (OVCAR-3 ovarian) [µM] | TGI (OVCAR-3 ovarian) [µM] |
| --- | --- | --- | --- | --- | --- | --- | --- | --- | --- | --- | --- | --- | --- | --- | --- | --- | --- | --- | --- | --- |
| CC(=O)OCCC/C(=C/c1cc2ccccc2c2ccccc12)[N+](=O)[O-] | 2.56 | 7.38 | 1.68 | 3.11 | 1.69 | 3.14 | 1.54 | 2.98 | 1.3 | 2.62 | 1.42 | 3.67 | 1.64 | 2.99 | 1.71 | 3.14 | 1.75 | 3.29 | 0.814 | 2.13 |
| NC(=S)N/N=C1/C(=O)N(c2ccccc2)C(=O)C1C(=O)Nc1ccccc1 (stereo not drawn) | – | > 100 | – | > 100 | – | > 100 | – | > 100 | – | > 100 | – | > 100 | – | > 100 | – | > 100 | – | > 100 | – | > 100 |
| COc1cc2ccnc(-c3n[nH]c4cc(OC)c(OC)cc34)c2cc1OC | – | > 100 | – | > 100 | – | > 100 | – | > 100 | – | > 100 | – | > 100 | – | > 100 | – | > 100 | – | > 100 | – | > 100 |
| Cc1c(-c2cc(-c3ccccc3)n[nH]c2=O)c2ccccc2n1C | – | > 100 | – | > 100 | – | > 100 | – | > 100 | – | > 100 | – | > 100 | – | > 100 | – | > 100 | – | > 100 | – | > 100 |
| COc1ccc(/C=N/C2=NNC(C)(c3ccccc3O)N2C(Cc2c[nH]c3ccccc23)C(=O)O)cc1 (stereo not drawn) | 2.85 | 14.5 | 3.06 | 19 | 5.01 | 10.9 | 2.27 | 5.81 | 2.81 | 11.8 | 1.96 | 10.8 | 2.67 | 8.41 | 2.55 | 8.51 | 2.26 | 15.1 | 3.05 | 11.7 |
| C=CC(=O)OCCCS(=O)(=O)[O-].C=CC(=O)OCCCS(=O)(=O)[O-].NC1CCCCC1N.[Pt+4] | > 25 | > 25 | > 25 | > 25 | > 25 | > 25 | > 25 | > 25 | > 25 | > 25 | > 25 | > 25 | > 25 | > 25 | > 25 | > 25 | > 25 | > 25 | > 25 | > 25 |
| COc1cc2c(cc1OC)C(Cc1cc(Br)c(OC)c(OC)c1)=[N+](C)CC2 | – | > 100 | – | > 100 | – | > 100 | – | > 100 | – | > 100 | – | > 100 | – | > 100 | – | > 100 | – | > 100 | – | > 100 |
| NCCNc1nc2ccc(F)cc2c2c(=O)c3cc(F)ccc3sc12 | 5.44 | 20.9 | 1.77 | 3.67 | 2.07 | 3.57 | 1.95 | 4.28 | 1.78 | 3.37 | 1.65 | 3.95 | 2.05 | 4.18 | 1.85 | 3.47 | 2.6 | 8.01 | 1.63 | 3.15 |
| COC(=O)C(Br)(C(=O)OC)C(Br)C(Br)C(Br)c1ccccc1 (stereo not drawn) | 16.8 | 31.9 | 3.3 | 13 | 2.35 | 6.19 | 14.4 | 27.8 | 2.15 | 6.15 | 13.9 | 31.9 | 2.12 | 4.99 | 17.2 | 32.3 | 1.82 | 3.96 | 1.72 | 3.11 |
| COc1ccccc1NC(=O)C1=C(C)NC(C)=C(C(=O)Nc2ccccc2OC)C1c1ccc(C2C(C(=O)Nc3ccccc3OC)=C(C)NC(C)=C2C(=O)Nc2ccccc2OC)cc1 | – | 26 | – | 10.7 | – | 16.2 | – | 5.77 | – | 7.49 | – | 6.91 | – | 6.45 | – | 12.6 | – | 15.6 | – | 6.08 |
| CSc1ccc(NC(=O)CCl)cc1 | – | > 10 | – | > 10 | – | > 10 | – | 5.1 | – | > 10 | – | > 10 | – | > 10 | – | > 10 | – | > 10 | – | > 10 |
| Nc1ncnc2c1N=CN(Oc1ccccc1)N2 | – | > 100 | – | > 100 | – | > 100 | – | > 100 | – | > 100 | – | > 100 | – | > 100 | – | > 100 | – | > 100 | – | > 100 |
| CC/C(=N/O)C(C)C(=O)CCC(=O)Nc1ccc(Cl)cc1 (stereo not drawn) | – | > 100 | – | > 100 | – | > 100 | – | > 100 | – | > 100 | – | > 100 | – | > 100 | – | > 100 | – | > 100 | – | > 100 |
| COc1ccc(-n2nc(C(=O)NCC(=O)Nc3nc4cc(OC)ccc4s3)c3ccccc3c2=O)cc1 | 1.83 | 4.93 | 2.32 | > 20.7 | 0.389 | 1.52 | 1.69 | 5.12 | > 24 | > 100 | 1.96 | 14.8 | 0.631 | 2.3 | 0.556 | – | 0.434 | 2.57 | 0.85 | – |
| NC1=C(/C(N)=N/O)C(c2ccccc2)c2ccc3ccccc3c2O1 (stereo not drawn) | 0.616 | > 100 | 1.19 | > 100 | 20.2 | > 100 | 19.9 | > 100 | 0.226 | 20.1 | 1.01 | > 100 | 11.3 | 51 | 0.341 | 16.1 | 0.831 | > 100 | 0.225 | 0.675 |
| COc1cc(NC(=O)c2cc3ccccc3cc2O)c(OC)cc1Cl | 1.39 | 3.94 | 2.25 | 10.6 | 3.64 | 7.7 | 2.74 | 6.95 | 1.95 | 8.4 | 1.29 | 5.01 | 2.86 | 10.7 | 1.9 | 4.91 | 2.12 | 8.21 | 1.41 | 4.1 |
